Laboratory results published in patent publication US20100267561A1, “HERBICIDAL PYRIDAZINONE DERIVATIVES” (priority 2007, published 2010).
Read-outs that look alike come from different tables or passages of the source.

How the values were obtained:
Type in all cases: in vivo
[1] = system: barnyardgrass (Echinochloa crus-galli); test: Test B flooded paddy test plant response
How it was run: (§1)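 Compounds were added directly to paddy water over 2-leaf-stage plants in pots flooded 3 cm above soil, water depth maintained. Visual injury scored against controls after 13 to 15 days in greenhouse, 0 (none) to 100 (complete control); dash indicates no result.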

[2] = system: umbrella sedge (Cyperus difformis); test: Test B flooded paddy test plant response
How it was run: as §1

[3] = system: giant foxtail (Setaria faberi); test: Test A pre-/postemergence plant response; details: for pest or weed control at 31 g/ha / pest or weed control at 125 g/ha: Setaria faberi, 240 h, read-out: Plant response rating, Foxtail, Giant
How it was run: (§2)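 Scores reflect visual plant injury relative to untreated controls on a 0–100 scale, recorded approximately 10 days after simultaneous preemergence soil spraying and postemergence spraying of one- to two-leaf seedlings grown in loam–sand.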

[4] = system: barnyardgrass (Echinochloa crus-galli); test: Test A pre-/postemergence plant response; details: for pest or weed control at 31 g/ha / pest or weed control at 125 g/ha: Echinochloa crus-galli, 240 h, read-out: Plant response rating, Barnyardgrass
How it was run: as §2

[5] = system: corn (Zea mays); test: Test A pre-/postemergence plant response; details: for Corn plant response rating (crop injury, 0 = no effect, 100 = complete kill) at 31 g/ha / Corn plant response rating (crop injury, 0 = no effect, 100 = complete kill) at 125 g/ha: Zea mays, 240 h
How it was run: as §2

[6] = system: wheat (Triticum aestivum); test: Test A pre-/postemergence plant response; details: for plant injury at 31 g/ha / plant injury at 125 g/ha: Triticum aestivum, 240 h, read-out: Plant response rating, Wheat
How it was run: as §2

[7] = system: large crabgrass (Digitaria sanguinalis); test: Test A pre-/postemergence plant response; details: for pest or weed control at 31 g/ha / pest or weed control at 125 g/ha: Digitaria sanguinalis, 240 h, read-out: Plant response rating, Crabgrass, Large
How it was run: as §2

[8] = system: pigweed (Amaranthus retroflexus); test: Test A pre-/postemergence plant response; details: for pest or weed control at 31 g/ha / pest or weed control at 125 g/ha: Amaranthus retroflexus, 240 h, read-out: Plant response rating, Pigweed
How it was run: as §2

[9] = system: winter barley (Hordeum vulgare); test: Test B postemergence plant response; details: for Barley plant response rating: 8 g ai/ha, postemergence, 0-100 scale; for Plant response rating, Barley: Postemergence, scale 0 to 100, 0 no effect, 100 complete control
How it was run: (§3)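 Following treatment of plants 2 to 18 cm high after emergence, pots were held under glass for 13 to 15 days; efficacy was then graded visually, 100 denoting complete control and a dash no test result.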

[10] = system: windgrass (Apera spica-venti); test: Test B postemergence plant response; details: for Windgrass plant response rating: postemergence, 0-100 scale; for Plant response rating, Windgrass: Postemergence
How it was run: as §3

[11] = system: chickweed (Stellaria media); test: Test B postemergence plant response; details: for Chickweed plant response rating: 8 g ai/ha, postemergence, 0-100 scale; for Plant response rating, Chickweed: Postemergence
How it was run: as §3

[12] = system: canarygrass (Phalaris minor); test: Test B postemergence plant response; details: for Canarygrass plant response rating: 8 g ai/ha, postemergence, 0-100 scale; for Plant response rating, Canarygrass: Postemergence
How it was run: as §3

[13] = Flood (flooded paddy test), 62 g ai/ha, scale 0 to 100, 0 no effect, 100 complete control
[14] = Flood (flooded paddy test), 125 g ai/ha, scale 0 to 100, 0 no effect, 100 complete control
[15] = Flood (flooded paddy test), 250 g ai/ha, scale 0 to 100, 0 no effect, 100 complete control
[16] = Flood, 31 g ai/ha, scale 0 to 100
[17] = Postemergence, 31 g ai/ha, 0 to 100 scale (0 no effect, 100 complete control)
[18] = Postemergence, 125 g ai/ha, 0 to 100 scale, 0 no effect, 100 complete control
[19] = Preemergence, 31 g ai/ha, 0 to 100 scale, 0 is no effect, 100 is complete control
[20] = Preemergence, 125 g ai/ha, 0 to 100 scale (0 no effect, 100 complete control)
[21] = 62 g ai/ha, scale 0 to 100, 0 no effect, 100 complete control
[22] = post-emergence, Postemergence, 31 g ai/ha, 0 to 100 scale (0 no effect, 100 complete control)
[23] = post-emergence, Postemergence, 125 g ai/ha, 0 to 100 scale, 0 no effect, 100 complete control
[24] = pre-emergence, Preemergence, 31 g ai/ha, 0 to 100 scale, 0 is no effect, 100 is complete control
[25] = pre-emergence, Preemergence, 125 g ai/ha, 0 to 100 scale (0 no effect, 100 complete control)

`Cc1nn(C)c(=O)c(-n2nc(-c3ccc(Br)cc3)cc2C)c1O` [Compound 81] was tested, and the “Plant response rating, Barnyardgrass” value [1, 13] was 0, the “Plant response rating, Barnyardgrass” value [1, 14] was 0 and the “Plant response rating, Barnyardgrass” value [1, 15] was 0. The “Plant response rating, Barnyardgrass” value [1, 16] was 0, the “Plant response rating, Sedge, Umbrella” value [2, 13] was 0 and the “Plant response rating, Sedge, Umbrella” value [2, 14] was 0. For the same molecule, the “Plant response rating, Sedge, Umbrella” value [2, 15] was 0, the “Plant response rating, Sedge, Umbrella” value [2, 16] was 0 and the “Plant response rating, Foxtail, Giant” value [3, 17] was 80. For the same molecule, the “Plant response rating, Foxtail, Giant” value [3, 18] was 100, the “Plant response rating, Foxtail, Giant” value [3, 19] was 80 and the “Plant response rating, Foxtail, Giant” value [3, 20] was 100. For the same molecule, the “Plant response rating, Barnyardgrass” value [4, 17] was 90, the “Plant response rating, Barnyardgrass” value [4, 18] was 100 and the “Plant response rating, Barnyardgrass” value [4, 19] was 70. For the same molecule, the “Plant response rating, Barnyardgrass” value [4, 20] was 100, the “Plant response rating, Corn” value [5, 17] was 30 and the “Plant response rating, Corn” value [5, 18] was 100. The “Plant response rating, Corn” value [5, 19] was 30, the “Plant response rating, Corn” value [5, 20] was 50 and the “Plant response rating, Wheat” value [6, 17] was 0. For the same molecule, the “Plant response rating, Wheat” value [6, 18] was 70, the “Plant response rating, Wheat” value [6, 19] was 20 and the “Plant response rating, Wheat” value [6, 20] was 50. The “Plant response rating, Crabgrass, Large” value [7, 17] was 90, the “Plant response rating, Crabgrass, Large” value [7, 18] was 100 and the “Plant response rating, Crabgrass, Large” value [7, 19] was 70. The “Plant response rating, Crabgrass, Large” value [7, 20] was 100, the “Plant response rating, Pigweed” value [8, 17] was 0 and the “Plant response rating, Pigweed” value [8, 18] was 0. For the same molecule, the “Plant response rating, Pigweed” value [8, 19] was 0, the “Plant response rating, Pigweed” value [8, 20] was 0 and the “Barley plant response rating” value [9] was 10. For the same molecule, the “Plant response rating, Barley” value ([9]; 16 g ai/ha) was 15, the “Plant response rating, Barley” value ([9]; 31 g ai/ha) was 70 and the “Plant response rating, Barley” value ([9]; 62 g ai/ha) was 98. For the same molecule, the “Windgrass plant response rating” value ([10]; 8 g ai/ha) was 45, the “Windgrass plant response rating” value ([10]; 16 g ai/ha) was 80 and the “Plant response rating, Windgrass” value ([10]; 31 g ai/ha, scale 0 to 100) was 85. For the same molecule, the “Plant response rating, Windgrass” value [10, 21] was 95, the “Chickweed plant response rating” value [11] was 0 and the “Plant response rating, Chickweed” value ([11]; 16 g ai/ha, scale 0 to 100) was 0. The “Plant response rating, Chickweed” value ([11]; 31 g ai/ha, scale 0 to 100) was 0, the “Plant response rating, Chickweed” value [11, 21] was 0 and the “Canarygrass plant response rating” value [12] was 65. For the same molecule, the “Plant response rating, Canarygrass” value ([12]; 31 g ai/ha, scale 0 to 100) was 98 and the “Plant response rating, Canarygrass” value [12, 21] was 100.
Molecule `Cc1cc(-c2ccc(Br)cc2)nn1-c1c(OC(=O)C2CC2)cnn(C(=O)C2CC2)c1=O` [Compound 80, 5-[3-(4-bromophenyl)-5-methyl-1H-pyrazol-1-yl]-1-(cyclopropylcarbonyl)-1,6-dihydro-6-oxo-4-pyridazinyl cyclopropanecarboxylate] has a pest or weed control at 62 g/ha ([1]; Echinochloa crus-galli, Flood (flooded paddy test), 62 g ai/ha, scale 0 to 100, 0 no effect, 100 complete control, read-out: Plant response rating, Barnyardgrass) of 0%, a pest or weed control at 125 g/ha ([1]; Echinochloa crus-galli, Flood (flooded paddy test), 125 g ai/ha, scale 0 to 100, 0 no effect, 100 complete control, read-out: Plant response rating, Barnyardgrass) of 0% and a pest or weed control at 250 g/ha ([1]; Echinochloa crus-galli, Flood (flooded paddy test), 250 g ai/ha, scale 0 to 100, 0 no effect, 100 complete control, read-out: Plant response rating, Barnyardgrass) of 0%. For the same molecule, the pest or weed control at 31 g/ha ([1]; Echinochloa crus-galli, Flood, 31 g ai/ha, scale 0 to 100, read-out: Plant response rating, Barnyardgrass) was 0%, the pest or weed control at 62 g/ha ([2]; Cyperus difformis, Flood (flooded paddy test), 62 g ai/ha, scale 0 to 100, 0 no effect, 100 complete control, read-out: Plant response rating, Sedge, Umbrella) was 0% and the pest or weed control at 125 g/ha ([2]; Cyperus difformis, Flood (flooded paddy test), 125 g ai/ha, scale 0 to 100, 0 no effect, 100 complete control, read-out: Plant response rating, Sedge, Umbrella) was 0%. It also gave a pest or weed control at 250 g/ha ([2]; Cyperus difformis, Flood (flooded paddy test), 250 g ai/ha, scale 0 to 100, 0 no effect, 100 complete control, read-out: Plant response rating, Sedge, Umbrella) of 0%, a pest or weed control at 31 g/ha ([2]; Cyperus difformis, Flood, 31 g ai/ha, scale 0 to 100, read-out: Plant response rating, Sedge, Umbrella) of 0% and a pest or weed control at 31 g/ha [3, 22] of 90%. It also gave a pest or weed control at 125 g/ha [3, 23] of 100%, a pest or weed control at 31 g/ha [3, 24] of 80% and a pest or weed control at 125 g/ha [3, 25] of 100%. The pest or weed control at 31 g/ha [4, 22] was 100%, the pest or weed control at 125 g/ha [4, 23] was 100% and the pest or weed control at 31 g/ha [4, 24] was 0%. It also gave a pest or weed control at 125 g/ha [4, 25] of 100%, a Corn plant response rating (crop injury, 0 = no effect, 100 = complete kill) at 31 g/ha [5, 22] of 60% and a Corn plant response rating (crop injury, 0 = no effect, 100 = complete kill) at 125 g/ha [5, 23] of 100%. It also gave a Corn plant response rating (crop injury, 0 = no effect, 100 = complete kill) at 31 g/ha [5, 24] of 40%, a Corn plant response rating (crop injury, 0 = no effect, 100 = complete kill) at 125 g/ha [5, 25] of 60% and a plant injury at 31 g/ha [6, 22] of 30%. It also gave a plant injury at 125 g/ha [6, 23] of 70%, a plant injury at 31 g/ha [6, 24] of 20% and a plant injury at 125 g/ha [6, 25] of 80%. It also gave a pest or weed control at 31 g/ha [7, 22] of 60%, a pest or weed control at 125 g/ha [7, 23] of 100% and a pest or weed control at 31 g/ha [7, 24] of 10%. The pest or weed control at 125 g/ha [7, 25] was 100%, the pest or weed control at 31 g/ha [8, 22] was 0% and the pest or weed control at 125 g/ha [8, 23] was 0%. For the same molecule, the pest or weed control at 31 g/ha [8, 24] was 0%, the pest or weed control at 125 g/ha [8, 25] was 0% and the “Barley plant response rating” value [9] was 30. For the same molecule, the “Plant response rating, Barley” value ([9]; 16 g ai/ha) was 60, the “Plant response rating, Barley” value ([9]; 31 g ai/ha) was 95 and the “Plant response rating, Barley” value ([9]; 62 g ai/ha) was 98. The “Windgrass plant response rating” value ([10]; 8 g ai/ha) was 30, the “Windgrass plant response rating” value ([10]; 16 g ai/ha) was 40 and the “Plant response rating, Windgrass” value ([10]; 31 g ai/ha, scale 0 to 100) was 60. The “Plant response rating, Windgrass” value [10, 21] was 70, the “Chickweed plant response rating” value [11] was 0 and the “Plant response rating, Chickweed” value ([11]; 16 g ai/ha, scale 0 to 100) was 0. For the same molecule, the “Plant response rating, Chickweed” value ([11]; 31 g ai/ha, scale 0 to 100) was 0, the “Plant response rating, Chickweed” value [11, 21] was 0 and the “Canarygrass plant response rating” value [12] was 90. For the same molecule, the “Plant response rating, Canarygrass” value ([12]; 16 g ai/ha, scale 0 to 100) was 98, the “Plant response rating, Canarygrass” value ([12]; 31 g ai/ha, scale 0 to 100) was 100 and the “Plant response rating, Canarygrass” value [12, 21] was 100.
